From US12448389B2, “BRM targeting compounds and associated methods of use” (Prelude Therapeutics Incorporated, priority 2020, dated 2025)

Legend:
[1] = biological target: T1, SMARCA4-HiBiT (Homo sapiens, UniProt P51532); test: SMARCA4 HiBiT degradation assay in HeLa cells; format: cell-based; details: 18 hours incubation; for DC50: read-out: HeLa-HiBit-SM4 DC50; for Dmax: HeLa, read-out: HeLa-HiBit-SM4 Dmax (%)
T1 construct: SMARCA4-HiBiT knock-in Hela monoclonal cell (CS3023226); host or cells: HeLa monoclonal knock-in line (CRISPR HiBiT knock-in at the endogenous locus, heterozygous)
Procedure: (§1) HiBiT peptide knock-in of SMARCA2 in LgBiT expressing HEK293T cells was performed by CRISPR-mediated tagging system as described Promega. The homozygous HiBiT knock-in on c-terminus SMARCA2 was confirmed by sanger sequence. SMARCA2-HiBiT knock-in Hela monoclonal cell (CS302366) and SMARCA4-HiBiT knock-in Hela monoclonal cell (CS3023226) were purchased from Promega. The heterozygous HiBiT-knock-in was confirmed by sanger sequence in both SMARCA2-HiBiT and SMARCA4-HiBiT monoclonal cells.
(§2) SMARCA2 HiBiT and SMARCA4 HiBiT Degradation Assay in HeLa Cells
(§3) Dispense 10 ul aliquot of prepared Hela-SMARCA2-HiBiT or Hela-SMARCA4-HiBiT cells (1:1 ratio of cells:Trypan Blue (#1450013, Bio-Rad)) onto cell counting slide (#145-0011, Bio-Rad) and obtain cell density and cell viability using cell counter (TC20, Bio-Rad). Remove appropriate volume of resuspended cells from culture flask to accommodate 2500 cells/well @20 μL/well. Transfer Hela-HiBiT cells to 50 mL conical (#430290, Corning). Spin down at 1000 rpm for 5 min using tabletop centrifuge (SPINCHRON 15, Beckman). Discard supernatant and resuspend cell pellet in modified EMEM (#30-2003, ATCC) cell culture media containing 10% FBS (F2422-500ML, Sigma), and 1×Penicillin/Streptomycin (200 g/L) (30-002-CI, Corning) to a cell density of 125,000 cells/mL. Dispense 20 μL of resuspended Hela-HiBit cells per well in 384-well TC treated plate (#12-565-343, Thermo Scientific) using standard cassette (#50950372, Thermo Scientific) on Multidrop Combi (#5840310, Thermo Scientific) inside laminar flow cabinet. Dispense test compounds onto plates using digital liquid dispenser (D300E, Tecan). Incubate plates in humidified tissue culture incubator @37° C. for 18 hours. Add 20 μL of prepared Nano-Glo® HiBiT Lytic detection buffer (N3050, Promega) to each well of 384-well plate using small tube cassette (#24073295, Thermo Scientific) on Multidrop Combi, incubate @RT for 30-60 min. Read plates on microplate reader (Envision 2105, PerkinElmer) using 384 well Ultra-Sensitive luminescence mode. Raw data files and compound information reports are swept into centralized data lake and deconvoluted using automated scripts designed by TetraScience, Inc. Data analysis, curve-fitting and reporting done in Dotmatics Informatics Suite using Screening Ultra module.

[2] = biological target: T2, SMARCA2-HiBiT (Homo sapiens, UniProt P51531); test: SMARCA2 HiBiT degradation assay in HeLa cells; format: cell-based; details: 18 hours incubation; for DC50: read-out: HeLa_HiBit-SM2 DC50; for Dmax: HeLa, read-out: HeLa-HiBit-SM2 Dmax (%)
T2 construct: SMARCA2-HiBiT knock-in Hela monoclonal cell (CS302366); host or cells: HeLa monoclonal knock-in line (CRISPR HiBiT knock-in at the endogenous locus, heterozygous)
Procedure: as §1, §2, §3

T1 sequence (P51532 whole entry): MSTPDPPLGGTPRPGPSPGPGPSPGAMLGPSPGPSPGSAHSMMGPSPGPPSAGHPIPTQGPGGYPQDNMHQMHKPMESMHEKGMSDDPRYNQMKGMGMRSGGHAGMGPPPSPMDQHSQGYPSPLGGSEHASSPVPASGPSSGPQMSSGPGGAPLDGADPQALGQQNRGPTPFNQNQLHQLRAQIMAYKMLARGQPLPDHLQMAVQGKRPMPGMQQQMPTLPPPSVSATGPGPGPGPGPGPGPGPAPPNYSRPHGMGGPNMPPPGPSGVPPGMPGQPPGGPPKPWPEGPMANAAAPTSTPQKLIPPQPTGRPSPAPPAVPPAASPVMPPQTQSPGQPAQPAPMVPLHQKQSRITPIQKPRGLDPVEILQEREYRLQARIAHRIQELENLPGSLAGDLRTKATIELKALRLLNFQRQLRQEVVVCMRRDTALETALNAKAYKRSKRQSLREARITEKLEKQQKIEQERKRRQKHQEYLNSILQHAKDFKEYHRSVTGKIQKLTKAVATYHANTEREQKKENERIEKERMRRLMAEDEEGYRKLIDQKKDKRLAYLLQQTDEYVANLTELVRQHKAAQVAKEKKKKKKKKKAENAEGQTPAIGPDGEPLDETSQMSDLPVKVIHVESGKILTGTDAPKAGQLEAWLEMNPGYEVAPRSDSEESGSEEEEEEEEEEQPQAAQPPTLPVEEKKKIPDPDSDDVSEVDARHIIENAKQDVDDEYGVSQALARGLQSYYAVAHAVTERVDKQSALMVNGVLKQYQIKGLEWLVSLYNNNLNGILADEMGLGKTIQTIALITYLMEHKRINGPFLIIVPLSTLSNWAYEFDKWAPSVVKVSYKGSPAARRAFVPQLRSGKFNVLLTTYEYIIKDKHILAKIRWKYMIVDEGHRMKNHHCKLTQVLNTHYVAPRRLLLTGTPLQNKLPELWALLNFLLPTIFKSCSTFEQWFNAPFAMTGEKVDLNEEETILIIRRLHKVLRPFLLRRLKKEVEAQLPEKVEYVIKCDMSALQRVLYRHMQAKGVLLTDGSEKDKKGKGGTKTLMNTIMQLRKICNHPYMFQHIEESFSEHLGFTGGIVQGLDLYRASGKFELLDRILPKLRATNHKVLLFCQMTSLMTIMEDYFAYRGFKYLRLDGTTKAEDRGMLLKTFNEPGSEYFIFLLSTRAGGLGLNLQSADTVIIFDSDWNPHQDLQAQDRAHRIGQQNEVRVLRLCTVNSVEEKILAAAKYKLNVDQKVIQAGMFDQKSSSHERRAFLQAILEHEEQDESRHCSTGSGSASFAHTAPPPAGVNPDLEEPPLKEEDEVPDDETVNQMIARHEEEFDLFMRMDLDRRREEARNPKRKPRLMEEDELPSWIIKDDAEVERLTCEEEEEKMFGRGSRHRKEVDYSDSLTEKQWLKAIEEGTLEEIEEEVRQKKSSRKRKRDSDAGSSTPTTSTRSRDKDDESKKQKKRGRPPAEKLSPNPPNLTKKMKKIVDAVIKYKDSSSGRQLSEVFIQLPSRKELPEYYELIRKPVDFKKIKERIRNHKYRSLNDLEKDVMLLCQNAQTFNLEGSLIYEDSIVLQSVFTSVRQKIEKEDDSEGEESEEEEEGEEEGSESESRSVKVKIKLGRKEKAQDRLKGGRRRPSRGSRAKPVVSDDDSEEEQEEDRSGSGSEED
T2 sequence (P51531 whole entry): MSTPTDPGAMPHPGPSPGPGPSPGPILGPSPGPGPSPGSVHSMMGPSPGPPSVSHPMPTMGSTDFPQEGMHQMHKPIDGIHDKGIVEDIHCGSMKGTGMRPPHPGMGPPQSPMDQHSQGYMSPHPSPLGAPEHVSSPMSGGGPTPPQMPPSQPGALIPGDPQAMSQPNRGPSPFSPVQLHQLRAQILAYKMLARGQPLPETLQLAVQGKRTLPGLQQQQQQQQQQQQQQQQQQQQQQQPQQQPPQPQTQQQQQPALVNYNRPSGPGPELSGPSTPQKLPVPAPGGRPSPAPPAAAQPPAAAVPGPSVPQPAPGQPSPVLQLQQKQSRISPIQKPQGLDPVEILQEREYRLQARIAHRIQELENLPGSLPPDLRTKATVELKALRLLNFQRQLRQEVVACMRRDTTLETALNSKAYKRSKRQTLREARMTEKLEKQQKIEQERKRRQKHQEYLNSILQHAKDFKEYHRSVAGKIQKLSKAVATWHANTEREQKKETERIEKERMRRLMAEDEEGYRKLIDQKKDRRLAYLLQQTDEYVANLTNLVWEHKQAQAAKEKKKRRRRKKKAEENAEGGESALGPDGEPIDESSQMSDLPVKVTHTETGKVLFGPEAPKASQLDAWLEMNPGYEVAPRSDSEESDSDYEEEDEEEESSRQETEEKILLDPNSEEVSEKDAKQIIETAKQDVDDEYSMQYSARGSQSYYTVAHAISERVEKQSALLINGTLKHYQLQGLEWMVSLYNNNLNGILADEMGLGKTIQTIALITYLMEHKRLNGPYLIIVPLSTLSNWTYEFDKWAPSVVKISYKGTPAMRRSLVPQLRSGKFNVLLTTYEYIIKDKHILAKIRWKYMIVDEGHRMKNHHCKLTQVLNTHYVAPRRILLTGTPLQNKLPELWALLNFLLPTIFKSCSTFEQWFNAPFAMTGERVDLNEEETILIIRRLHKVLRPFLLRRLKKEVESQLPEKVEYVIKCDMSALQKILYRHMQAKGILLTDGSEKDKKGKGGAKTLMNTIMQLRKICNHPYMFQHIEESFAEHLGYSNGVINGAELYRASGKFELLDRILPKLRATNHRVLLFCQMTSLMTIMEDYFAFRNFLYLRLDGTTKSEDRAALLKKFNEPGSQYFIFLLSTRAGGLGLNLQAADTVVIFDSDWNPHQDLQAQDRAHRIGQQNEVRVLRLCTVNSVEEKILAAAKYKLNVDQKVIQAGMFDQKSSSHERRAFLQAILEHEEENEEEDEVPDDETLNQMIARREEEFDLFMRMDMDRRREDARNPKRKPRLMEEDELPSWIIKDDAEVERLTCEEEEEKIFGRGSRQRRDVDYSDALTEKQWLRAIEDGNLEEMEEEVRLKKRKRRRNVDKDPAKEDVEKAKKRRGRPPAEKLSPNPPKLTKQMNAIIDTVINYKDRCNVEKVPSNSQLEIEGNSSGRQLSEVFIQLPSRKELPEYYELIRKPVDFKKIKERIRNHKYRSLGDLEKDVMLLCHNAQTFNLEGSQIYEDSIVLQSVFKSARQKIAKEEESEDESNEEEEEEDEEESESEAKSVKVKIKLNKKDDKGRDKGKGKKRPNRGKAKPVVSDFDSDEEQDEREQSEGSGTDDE

Row | SMILES | DC50 [1] [nM] | Dmax [1] [%] | DC50 [2] [nM] | Dmax [2] [%]
1 | CC1CC(CN2CCC(CN3CCN4c5cc(-c6ccccc6O)nnc5NC[C@H]4C3)CC2)CCN1c1ccc2c(c1)C(=O)N(C1CCC(=O)NC1=O)C2=O (stereo partly drawn) [Example 148, 2-(2,6-dioxopiperidin-3-yl)-5-(4-((4-(((S)-2-(2-hydroxyphenyl)-5,6,6a,7,9,10-hexahydro-8H-pyrazino[1′,2′:4,5]pyrazino[2,3-c]pyridazin-8-yl)methyl)piperidin-1-yl)methyl)-2-methylpiperidin-1-yl)isoindoline-1,3-dione] | < 10 | > 85 | < 10 | > 85
2 | O=C1CCC(N2C(=O)c3ccc(N4CC(CN5CCC(C(=O)N6CCN7c8cc(-c9ccccc9O)nnc8NC[C@H]7C6)CC5)C4)cc3C2=O)C(=O)N1 (stereo partly drawn) [Example 86, 2-(2,6-dioxopiperidin-3-yl)-5-(3-((4-((S)-2-(2-hydroxyphenyl)-6,6a,7,8,9,10-hexahydro-5H-pyrazino[1′,2′:4,5]pyrazino[2,3-c]pyridazine-8-carbonyl)piperidin-1-yl)methyl)azetidin-1-yl)isoindoline-1,3-dione] | 10 to 100 | 50 to 75 | < 10 | > 85
3 | O=C1CCC(N2C(=O)c3ccc(N4CCC(NC5CCN(C(=O)N6CCN7c8cc(-c9ccccc9O)nnc8NC[C@H]7C6)CC5)CC4)cc3C2=O)C(=O)N1 (stereo partly drawn) [Example 141, 2-(2,6-dioxopiperidin-3-yl)-5-(4-((1-((S)-2-(2-hydroxyphenyl)-6,6a,7,8,9,10-hexahydro-5H-pyrazino[1′,2′:4,5]pyrazino[2,3-c]pyridazine-8-carbonyl)piperidin-4-yl)amino)piperidin-1-yl)isoindoline-1,3-dione] | 10 to 100 | 50 to 75 | < 10 | 75 to 85
4 | O=C1CCC(N2Cc3ccc(N4CCC(CN5C[C@@H]6[C@H](C5)[C@H]6C(=O)N5CCN6c7cc(-c8ccccc8O)nnc7NC[C@H]6C5)CC4)cc3C2=O)C(=O)N1 (stereo partly drawn) [Example 96, 3-(6-(4-(((1R,5S,6r)-6-((S)-2-(2-hydroxyphenyl)-6,6a,7,8,9,10-hexahydro-5H-pyrazino[1′,2′:4,5]pyrazino[2,3-c]pyridazine-8-carbonyl)-3-azabicyclo[3.1.0]hexan-3-yl)methyl)piperidin-1-yl)-1-oxoisoindolin-2-yl)piperidine-2,6-dione] | 10 to 100 | ≤ 50 | < 10 | 50 to 75
5 | CC1(CN2CCN3c4cc(-c5ccccc5O)nnc4NC[C@H]3C2)CCN(CC2CCN(c3ccc4c(c3)CN(C3CCC(=O)NC3=O)C4=O)CC2)CC1 (stereo partly drawn) [Example 250, 3-(5-(4-((4-(((S)-2-(2-hydroxyphenyl)-5,6,6a,7,9,10-hexahydro-8H-pyrazino[1′,2′:4,5]pyrazino[2,3-c]pyridazin-8-yl)methyl)-4-methylpiperidin-1-yl)methyl)piperidin-1-yl)-1-oxoisoindolin-2-yl)piperidine-2,6-dione] | < 10 | > 85 | < 10 | > 85
6 | O=C1CCC(N2C(=O)c3ccc(N4Cc5cnc(N6C[C@@H]7[C@@H](CN8CCN9c%10cc(-c%11ccccc%11O)nnc%10NC[C@H]9C8)[C@@H]7C6)nc5C4)cc3C2=O)C(=O)N1 (stereo partly drawn) [Example 58, 2-(2,6-dioxopiperidin-3-yl)-5-(2-((1R,5S,6s)-6-(((S)-2-(2-hydroxyphenyl)-5,6,6a,7,9,10-hexahydro-8H-pyrazino[1′,2′:4,5]pyrazino[2,3-c]pyridazin-8-yl)methyl)-3-azabicyclo[3.1.0]hexan-3-yl)-5,7-dihydro-6H-pyrrolo[3,4-d]pyrimidin-6-yl) isoindoline-1,3-dione] | 10 to 100 | ≤ 50 | < 10 | 50 to 75
7 | O=C1CCC(N2Cc3cc(N4CCN(CC5CCN(CCN6CCN7c8cc(-c9ccccc9O)nnc8NC[C@H]7C6)CC5)CC4)ccc3C2=O)C(=O)N1 (stereo partly drawn) [Example 217, 3-(5-(4-((1-(2-((S)-2-(2-hydroxyphenyl)-5,6,6a,7,9,10-hexahydro-8H-pyrazino [1′,2′:4,5]pyrazino[2,3-c]pyridazin-8-yl)ethyl)piperidin-4-yl)methyl)piperazin-1-yl)-1-oxoisoindolin-2-yl)piperidine-2,6-dione] | < 10 | > 85 | < 10 | > 85
8 | O=C1CCC(N2C(=O)c3ccc(N4CC[C@H](CN5CCC(C(=O)N6CCN7c8cc(-c9ccccc9O)nnc8NC[C@H]7C6)CC5)[C@@H](F)C4)cc3C2=O)C(=O)N1 (stereo partly drawn) [Example 202, 2-(2,6-dioxopiperidin-3-yl)-5-[(3R,4R)-3-fluoro-4-[[4-[(10S)-4-(2-hydroxyphenyl)-1,5,6,8,12-pentazatricyclo [8.4.0.02,7]tetradeca-2(7),3,5-trien-12-carbonyl]piperidin-1-yl]methyl]piperidin-1-yl]isoindole-1,3-dione] | 10 to 100 | 75 to 85 | < 10 | > 85
9 | O=C1CCC(N2C(=O)c3ccc(N4CCC(CN5C[C@@H]6[C@H](C5)[C@H]6CN5CCN6c7cc(-c8ccccc8O)nnc7NC[C@H]6C5)CC4)cc3C2=O)C(=O)N1 (stereo partly drawn) [Example 42, 2-(2,6-dioxopiperidin-3-yl)-5-(4-(((1R,5S,6r)-6-(((S)-2-(2-hydroxyphenyl)-5,6,6a,7,9,10-hexahydro-8H-pyrazino[1′,2′:4,5]pyrazino[2,3-c]pyridazin-8-yl)methyl)-3-azabicyclo[3.1.0]hexan-3-yl)methyl)piperidin-1-yl)isoindoline-1,3-dione] | < 10 | 50 to 75 | < 10 | > 85
10 | O=C1CCC(N2C(=O)c3ccc(N4CCC(CN5CCC(C(=O)N6CCN7c8cc(-c9ccccc9O)nnc8NC[C@H]7C6)CC5)C(F)(F)C4)cc3C2=O)C(=O)N1 (stereo partly drawn) [Example 196, 5-[3,3-difluoro-4-[[4-[(10S)-4-(2-hydroxyphenyl)-1,5,6,8,12-pentazatricyclo[8.4.0.02,7]tetradeca-2(7),3,5-trien-12-carbonyl]piperidin-1-yl]methyl]piperidin-1-yl]-2-(2,6-dioxopiperidin-3-yl) isoindole-1,3-dione] | 10 to 100 | 50 to 75 | < 10 | 75 to 85
11 | O=C1CCC(N2C(=O)c3ccc(N4CC[C@H](CN5CCC(CN6CCN7c8cc(-c9ccccc9O)nnc8NC[C@H]7C6)CC5)[C@H](F)C4)cc3C2=O)C(=O)N1 (stereo partly drawn) [Example 185, 2-(2,6-dioxopiperidin-3-yl)-5-[(3S,4R)-3-fluoro-4-[[4-[[(10S)-4-(2-hydroxyphenyl)-1,5,6,8,12-pentazatricyclo[8.4.0.02,7]tetradeca-2(7),3,5-trien-12-yl]methyl]piperidin-1-yl]methyl]piperidin-1-yl]isoindole-1,3-dione] | < 10 | 50 to 75 | < 10 | 75 to 85
12 | CC1(C)CN(CC2CCN(c3ccc4c(c3)C(=O)N(C3CCC(=O)NC3=O)C4=O)CC2)CCC1CN1CCN2c3cc(-c4ccccc4O)nnc3NC[C@H]2C1 (stereo partly drawn) [Example 257, 2-(2,6-dioxopiperidin-3-yl)-5-(4-((4-(((S)-2-(2-hydroxyphenyl)-5,6,6a,7,9,10-hexahydro-8H-pyrazino[1′,2′:4,5]pyrazino[2,3-c]pyridazin-8-yl)methyl)-3,3-dimethylpiperidin-1-yl)methyl)piperidin-1-yl)isoindoline-1,3-dione] | < 10 | > 85 | < 10 | > 85
13 | O=C1CCC(N2C(=O)c3cccc(N4CCC(OCCN5CCC(N6CCN7c8cc(-c9ccccc9O)nnc8NC[C@H]7C6)CC5)CC4)c3C2=O)C(=O)N1 (stereo partly drawn) [Example 67, 2-(2,6-dioxopiperidin-3-yl)-4-(4-(2-(4-((S)-2-(2-hydroxyphenyl)-5,6,6a,7,9,10-hexahydro-8H-pyrazino[1′,2′:4,5]pyrazino[2,3-c]pyridazin-8-yl)piperidin-1-yl)ethoxy)piperidin-1-yl)isoindoline-1,3-dione] | < 10 | 50 to 75 | < 10 | 50 to 75
